This passage reports IC50 results from US9738600B2, “ROR gamma (RORγ) modulators” (LEAD PHARMA CEL MODELS IP B.V., priority 2013, dated 2017).

The target in the assay is T1, RORγ (Homo sapiens, UniProt P51449).
T1 sequence (P51449 269-508 limits assumed): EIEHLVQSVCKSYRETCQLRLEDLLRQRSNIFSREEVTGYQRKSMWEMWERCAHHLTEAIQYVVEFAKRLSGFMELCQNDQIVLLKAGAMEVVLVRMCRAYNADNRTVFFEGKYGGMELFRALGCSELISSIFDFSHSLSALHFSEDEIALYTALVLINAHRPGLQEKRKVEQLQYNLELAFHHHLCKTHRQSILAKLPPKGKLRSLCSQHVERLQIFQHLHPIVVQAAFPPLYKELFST
The assay can be described thus: RORγ GAL4 reporter gene assay. Conditions: mean pIC50, inhibition of RORγ (GAL4-RORγ-LBD) in 293FT cells, luciferase readout, overnight incubation. For orientation: Reporter assays use an easily measured gene product as a stand-in for the process of interest.
Text: The RORγ ligand-binding domain (LBD) was fused to the yeast GAL4 DNA binding domain (DBD) and placed under the control of the human cytomegalovirus (CMV) immediate early promoter, using expression vector pFN26A (Promega) and standard recombinant DNA cloning methods.
To monitor the inhibitory effect of compounds on RORγ, a transcriptional reporter construct was used. The pGL4.35 vector (Promega) contains nine copies of the GAL4 Upstream Activator Sequence (UAS). This sequence drives the transcription of the luciferase reporter gene luc2P in response to binding of a fusion protein containing the GAL4 DNA binding domain, as for example expressed by the GAL4-RORγ-LBD and GAL4-VP16 expression vectors described above.
The day after transfection, cells were plated into 96 well plates, test compound was added and the plates were incubated overnight. Subsequently, the firefly luciferase activity was quantified using luciferase detection reagent and luminescence readout.
1500 μL of this reagent mixture was added to 5 μg of GAL4 fusion protein expression vector and 5 μg of the transcriptional reporter construct, and incubated at RT for 20 minutes.
Subsequently, the cells were washed with Phosphate Buffered Saline (PBS) (Lonza), after which the PBS was removed. To dissociate the cells, 1 ml of TrypLE Express (Invitrogen) was added to the flask, followed by incubation at RT until the cells visually started to detach. Cells were collected in 5 mL of assay medium (DMEM culture medium (Lonza), 10% dialyzed FBS (Invitrogen) and Pen/Strep (Lonza)) to achieve a single cell suspension. 10×10^6 cells were spun down and re-suspended in 10 mL of assay medium. Subsequently, the cell suspension was added to the transfection mix tube, and then transferred as a whole to a T75 flask (Greiner), followed by overnight (16-24 hours) incubation at 37° C. and 5% CO2.
For compound screening, the cells were harvested (as described above) and counted. […] 80 μL of cell suspension (60,000 cells) was plated per well into a white, flat bottom, tissue culture treated, 96 well screening plates (Greiner).
Test compounds were diluted, starting from a 10 mM dimethylsulfoxide (DMSO) stock solution, to serial dilutions in DMSO at 500× the final test concentration. Subsequently, these solutions were diluted to 5× the final test concentration in two 10-fold-dilution steps in assay medium. The final DMSO concentration of the 5× test compound solution was 1%. 20 μL of the 5× test compound solution was added to each test well of the 96 well plate previously plated with 80 μl cell suspension, resulting in the final test concentration with 0.2% DMSO.
The plates were incubated overnight (16-24 hours) at 37° C. and 5% CO2.
For the luciferase readout, the luciferase reagent (Britelite Plus, Perkin Elmer) was brought to RT. […] The luciferase luminescence signal was measured using a Wallac Victor Microplate Reader (Perkin Elmer).
The half maximum inhibitory concentration (IC50) values for the test compounds were calculated from the luciferase signal using GraphPad Prism software (GraphPad Software).
In the case of `CCCS(=O)(=O)c1ccc(CC(=O)Nc2ccc(C(O)(C(F)(F)F)C(F)(F)F)cc2)cc1` [Example 4, N-(4-(1,1,1,3,3,3-hexafluoro-2-hydroxypropan-2-yl)phenyl)-2-(4-(propylsulfonyl)phenyl)acetamide], the IC50 (usually the concentration that gives 50% inhibition) was at most 1 µM.

With `CCS(=O)(=O)c1ccc(C(C)C(=O)Nc2ccc(C(O)(C(F)(F)F)C(F)(F)F)cc2)cc1` (stereo not shown) [Example 5, 2-(4-(ethylsulfonyl)phenyl)-N-(4-(1,1,1,3,3,3-hexafluoro-2-hydroxypropan-2-yl)phenyl)propanamide], the IC50 was at most 1 µM.

Consider `CNS(=O)(=O)c1ccc(CC(=O)Nc2ccc(C(O)(C(F)(F)F)C(F)(F)F)cc2)cc1` [Example 6, N-(4-(1,1,1,3,3,3-hexafluoro-2-hydroxypropan-2-yl)phenyl)-2-(4-(N-methylsulfamoyl)phenyl)acetamide], for which the IC50 was at most 1 µM.

In turn, `O=C(Cc1ccc(S(=O)(=O)NC2CC2)cc1)Nc1ccc(C(O)(C(F)(F)F)C(F)(F)F)cc1` [Example 9, 2-(4-(N-cyclopropylsulfamoyl)phenyl)-N-(4-(1,1,1,3,3,3-hexafluoro-2-hydroxypropan-2-yl)phenyl)acetamide] displayed an IC50 of at most 0.1 µM.

The molecule `CCNS(=O)(=O)c1ccc(CC(=O)Nc2ccc(C(O)(C(F)(F)F)C(F)(F)F)cc2)cc1` [Example 10, 2-(4-(N-ethylsulfamoyl)phenyl)-N-(4-(1,1,1,3,3,3-hexafluoro-2-hydroxypropan-2-yl)phenyl)acetamide] returned an IC50 of at most 1 µM.

`O=C(Cc1cccc(S(=O)(=O)NC2CC2)c1)Nc1ccc(C(O)(C(F)(F)F)C(F)(F)F)cc1` [Example 12, 2-(3-(N-cyclopropylsulfamoyl)phenyl)-N-(4-(1,1,1,3,3,3-hexafluoro-2-hydroxypropan-2-yl)phenyl)acetamide] came in with an IC50 of at most 1 µM.

As for `CCS(=O)(=O)c1ccc(CC(=O)Nc2ccc(C(O)(C(F)(F)F)C(F)(F)F)c(F)c2C)cc1` [Example 15, 2-(4-(ethylsulfonyl)phenyl)-N-(3-fluoro-4-(1,1,1,3,3,3-hexafluoro-2-hydroxypropan-2-yl)-2-methylphenyl)acetamide], the IC50 was at most 1 µM.

Molecule `CNS(=O)(=O)c1cccc(CC(=O)Nc2ccc(C(O)(C(F)(F)F)C(F)(F)F)cc2)c1` [Example 19, N-(4-(1,1,1,3,3,3-hexafluoro-2-hydroxypropan-2-yl)phenyl)-2-(3-(N-methylsulfamoyl)phenyl)acetamide] came in with an IC50 of at most 1 µM.

For the molecule `CCS(=O)(=O)c1ccc(CC(=O)Nc2ccc(C(O)(C(F)(F)F)C(F)(F)F)cn2)cc1` [Example 21, 2-(4-(ethylsulfonyl)phenyl)-N-(5-(1,1,1,3,3,3-hexafluoro-2-hydroxypropan-2-yl)pyridin-2-yl)acetamide], the IC50 was at most 1 µM.

`CCS(=O)(=O)c1ccc(CC(=O)Nc2cc(Cl)c(C(O)(C(F)(F)F)C(F)(F)F)cc2OC)cc1` [Example 22, N-(5-chloro-4-(1,1,1,3,3,3-hexafluoro-2-hydroxypropan-2-yl)-2-methoxyphenyl)-2-(4-(ethylsulfonyl)phenyl)acetamide] yielded an IC50 of at most 1 µM.

For the molecule `CCS(=O)(=O)c1ccc(CC(=O)Nc2c(C)cc(C(O)(C(F)(F)F)C(F)(F)F)cc2C)cc1` [Example 23, 2-(4-(ethylsulfonyl)phenyl)-N-(4-(1,1,1,3,3,3-hexafluoro-2-hydroxypropan-2-yl)-2,6-dimethylphenyl)acetamide], the concentration for half-maximal inhibition (IC50) was at most 1 µM.

Molecule `Cc1c(NC(=O)Cc2ccc(S(=O)(=O)NC3CC3)cc2)ccc(C(O)(C(F)(F)F)C(F)(F)F)c1F` [Example 26, 2-(4-(N-cyclopropylsulfamoyl)phenyl)-N-(3-fluoro-4-(1,1,1,3,3,3-hexafluoro-2-hydroxypropan-2-yl)-2-methylphenyl)acetamide] had an IC50 of at most 1 µM.

Take `CCS(=O)(=O)c1ccc(CC(=O)Nc2ccc(C(O)(C(F)(F)F)C(F)(F)F)cc2F)cc1` [Example 28, 2-(4-(ethylsulfonyl)phenyl)-N-(2-fluoro-4-(1,1,1,3,3,3-hexafluoro-2-hydroxypropan-2-yl)phenyl)acetamide]: the IC50 was at most 1 µM.

`CCS(=O)(=O)c1ccc(CC(=O)Nc2ccc(C(O)(C(F)(F)F)C(F)(F)F)c(C)c2)cc1` [Example 29, 2-(4-(ethylsulfonyl)phenyl)-N-(4-(1,1,1,3,3,3-hexafluoro-2-hydroxypropan-2-yl)-3-methylphenyl)acetamide] came in with a half-inhibitory concentration (IC50) of at most 0.1 µM.

Consider `CCS(=O)(=O)c1ccc(CC(=O)Nc2ccc(C(O)(C(F)(F)F)C(F)(F)F)cc2C)cc1` [Example 31, 2-(4-(ethylsulfonyl)phenyl)-N-(4-(1,1,1,3,3,3-hexafluoro-2-hydroxypropan-2-yl)-2-methylphenyl)acetamide], for which the IC50 was at most 1 µM.

On to `Cc1cc(NC(=O)Cc2ccc(S(=O)(=O)NC3CC3)cc2)ccc1C(O)(C(F)(F)F)C(F)(F)F` [Example 32, 2-(4-(N-cyclopropylsulfamoyl)phenyl)-N-(4-(1,1,1,3,3,3-hexafluoro-2-hydroxypropan-2-yl)-3-methylphenyl)acetamide], for which the IC50 was at most 0.1 µM.

`Cc1cc(C(O)(C(F)(F)F)C(F)(F)F)ccc1NC(=O)Cc1ccc(S(=O)(=O)NC2CC2)cc1` [Example 34, 2-(4-(N-cyclopropylsulfamoyl)phenyl)-N-(4-(1,1,1,3,3,3-hexafluoro-2-hydroxypropan-2-yl)-2-methylphenyl)acetamide]: the IC50 is at most 1 µM.

On to `Cc1cc(NC(=O)Cc2cccc(S(=O)(=O)NC3CC3)c2)ccc1C(O)(C(F)(F)F)C(F)(F)F` [Example 36, 2-(3-(N-cyclopropylsulfamoyl)phenyl)-N-(4-(1,1,1,3,3,3-hexafluoro-2-hydroxypropan-2-yl)-3-methylphenyl)acetamide], for which the IC50 is at most 1 µM.

`O=C(Cc1ccc(S(=O)(=O)CC2CC2)cc1)Nc1ccc(C(O)(C(F)(F)F)C(F)(F)F)cc1` [Example 37, 2-(4-((cyclopropylmethyl)sulfonyl)phenyl)-N-(4-(1,1,1,3,3,3-hexafluoro-2-hydroxypropan-2-yl)phenyl)acetamide]: the IC50 is at most 0.01 µM.

`O=C(Cc1cccc(S(=O)(=O)NC2CC2)c1)Nc1ccc(C(O)(C(F)(F)F)C(F)(F)F)c(F)c1` [Example 38, 2-(3-(N-cyclopropylsulfamoyl)phenyl)-N-(3-fluoro-4-(1,1,1,3,3,3-hexafluoro-2-hydroxypropan-2-yl)phenyl)acetamide] displayed a half-inhibitory concentration (IC50) of at most 1 µM.

For the molecule `O=C(Cc1cccc(S(=O)(=O)NC2CC2)c1)Nc1ccc(C(O)(C(F)(F)F)C(F)(F)F)cc1F` [Example 40, 2-(3-(N-cyclopropylsulfamoyl)phenyl)-N-(2-fluoro-4-(1,1,1,3,3,3-hexafluoro-2-hydroxypropan-2-yl)phenyl)acetamide], the IC50 is at most 1 µM.

With `CCS(=O)(=O)c1ccc(CC(=O)Nc2ccc(C(O)(C(F)(F)F)C(F)(F)F)cc2)cc1F` [Example 42, 2-(4-(ethylsulfonyl)-3-fluorophenyl)-N-(4-(1,1,1,3,3,3-hexafluoro-2-hydroxypropan-2-yl)phenyl)acetamide], the IC50 is at most 1 µM.

`Cc1cc(C(O)(C(F)(F)F)C(F)(F)F)ccc1NC(=O)Cc1ccc(S(=O)(=O)CC2CC2)cc1` [Example 43, 2-(4-((cyclopropylmethyl)sulfonyl)phenyl)-N-(4-(1,1,1,3,3,3-hexafluoro-2-hydroxypropan-2-yl)-2-methylphenyl)acetamide] came in with an IC50 of at most 0.1 µM.

`Cc1cc(NC(=O)Cc2ccc(S(=O)(=O)CC3CC3)cc2)ccc1C(O)(C(F)(F)F)C(F)(F)F` [Example 44, 2-(4-((cyclopropylmethyl)sulfonyl)phenyl)-N-(4-(1,1,1,3,3,3-hexafluoro-2-hydroxypropan-2-yl)-3-methylphenyl)acetamide] registered an IC50 of at most 0.01 µM.

`O=C(Cc1ccc(S(=O)(=O)CC2CC2)cc1)Nc1ccc(C(O)(C(F)(F)F)C(F)(F)F)c(F)c1` [Example 45, 2-(4-((cyclopropylmethyl)sulfonyl)phenyl)-N-(3-fluoro-4-(1,1,1,3,3,3-hexafluoro-2-hydroxypropan-2-yl)phenyl)acetamide] came in with an IC50 of at most 0.01 µM.

Consider `O=C(Cc1ccc(S(=O)(=O)CC2CC2)cc1)Nc1ccc(C(O)(C(F)(F)F)C(F)(F)F)cc1F` [Example 46, 2-(4-((cyclopropylmethyl)sulfonyl)phenyl)-N-(2-fluoro-4-(1,1,1,3,3,3-hexafluoro-2-hydroxypropan-2-yl)phenyl)acetamide], for which the IC50 is at most 0.01 µM.

Turning to `CCOC(c1ccc(NC(=O)Cc2ccc(S(=O)(=O)CC)cc2)cc1)(C(F)(F)F)C(F)(F)F` [Example 48, N-(4-(2-ethoxy-1,1,1,3,3,3-hexafluoropropan-2-yl)phenyl)-2-(4-(ethylsulfonyl)phenyl)acetamide], the IC50 is at most 1 µM.

With `CCCOC(c1ccc(NC(=O)Cc2ccc(S(=O)(=O)CC)cc2)cc1)(C(F)(F)F)C(F)(F)F` [Example 49, 2-(4-(ethylsulfonyl)phenyl)-N-(4-(1,1,1,3,3,3-hexafluoro-2-propoxypropan-2-yl)phenyl)acetamide], the half-inhibitory concentration (IC50) was at most 0.1 µM.

For the molecule `CCS(=O)(=O)c1ccc(CC(=O)Nc2ccc(C(OCc3ccccc3)(C(F)(F)F)C(F)(F)F)cc2)cc1` [Example 50, N-(4-(2-(benzyloxy)-1,1,1,3,3,3-hexafluoropropan-2-yl)phenyl)-2-(4-(ethylsulfonyl)phenyl)acetamide], the half-maximal inhibitory concentration (IC50) is at most 1 µM.

Consider `CC(C)OC(c1ccc(NC(=O)Cc2ccc(S(=O)(=O)CC3CC3)cc2)cc1)(C(F)(F)F)C(F)(F)F` [Example 51, 2-(4-((cyclopropylmethyl)sulfonyl)phenyl)-N-(4-(1,1,1,3,3,3-hexafluoro-2-isopropoxypropan-2-yl)phenyl)acetamide], for which the IC50 was at most 0.1 µM.

`CCCCOC(c1ccc(NC(=O)Cc2ccc(S(=O)(=O)CC3CC3)cc2)cc1)(C(F)(F)F)C(F)(F)F` [Example 52, N-(4-(2-butoxy-1,1,1,3,3,3-hexafluoropropan-2-yl)phenyl)-2-(4-((cyclopropylmethyl)sulfonyl)phenyl)acetamide] displayed an IC50 of at most 0.1 µM.
